This is an account of results in paper PMC5275761 (Biochemistry, 2016).

The data set concerns the target CYP3A4 (Homo sapiens, UniProt P08684, S18F). Kind of data set: Stopped-flow spectroscopy of ligand binding to CYP3A4 nanodiscs. The settings on record: faster in POPC nanodiscs.

For `C[C@]12CC[C@H]3[C@@H](CCC4=CC(=O)CC[C@@]43C)[C@@H]1CC[C@@H]2O` [TST, testosterone], the “rate constant for binding in POPC nanodiscs relative to 25% POPC/75% DMPC nanodiscs” value is on record as ~ 4 fold.
